The text below walks through data of patent publication US10611740B2, “Aryl dihydro-2H-benzo[b][1,4]oxazine sulfonamide and related compounds for use as agonists of RORγ and the treatment of disease” (Lycera Corporation, priority 2015, dated 2020).

Structures are written as SMILES.

One test has as its target T1, RORγ-LBD (Homo sapiens, UniProt P51449).
T1 construct: made in house; host or cells: SF9 cells (baculovirus)
T1 sequence (P51449 269-508 limits assumed): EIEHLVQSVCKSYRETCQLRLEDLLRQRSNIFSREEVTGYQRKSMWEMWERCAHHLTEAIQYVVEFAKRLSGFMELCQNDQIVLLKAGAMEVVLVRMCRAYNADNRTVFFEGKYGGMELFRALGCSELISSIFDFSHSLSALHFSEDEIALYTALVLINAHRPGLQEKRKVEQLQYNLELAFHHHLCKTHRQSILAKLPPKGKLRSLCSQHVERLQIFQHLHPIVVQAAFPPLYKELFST
Kind of test: RORγ-Ligand Binding Domain (LBD) TR-FRET Assay.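 On TR-FRET Assay Max Response: 665/615 nm ratio relative to signal without ursolic acid or compound set at 100.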 It counts as biochemical. In outline: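 This TR-FRET coactivator assay pairs baculovirus-expressed His-RORγ-LBD (~3 nM final) with biotin-SRC1 LXXLL peptide at 200 nM final in pH 7.0 Tris/KCl/EDTA/DTT/BSA buffer.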

In a further test the target is T2, Gal4-RORγ-LBD (Homo sapiens, UniProt P51449).
T2 construct: expressed in transfected cells; host or cells: HEK-293 cells (pcDNA3.1neo plasmid)
T2 sequence (P51449 269-508 limits assumed): T1 sequence (P51449 269-508 limits assumed)
Kind of test: Gal4-RORγ Luciferase Reporter Assay in HEK-293T Cells. It counts as cell-based. The note with it: HEK-293 cells, luciferase reporter, with 2 μM ursolic acid. In outline:
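Luminescence read-out (One-Glo, 10 min RT) after overnight compound exposure at 37 °C in HEK-293 cells carrying Gal4-RORγ-LBD plus a Gal4-luciferase reporter, in the presence of 2 μM ursolic acid. Max Response is the upper plateau from a 4-parameter logistic fit, normalized to untreated signal = 100.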

Turning to `O=C(O)CC[C@H]1CN(S(=O)(=O)c2cccc(C(F)(F)F)c2)c2cc(-c3cccc(F)c3Cl)ccc2O1` [Compound 2AH, (S)-3-(6-(2-chloro-3-fluoro-phenyl)-4-((3-(trifluoromethyl)-phenyl)sulfonyl)-3,4-dihydro-2H-benzo[b][1,4]oxazin-2-yl)propanoic acid], on RORγ-LBD, the EC50 was less than 500 nM and the “TR-FRET Assay Max Response” value was “**** (The symbol “****” indicates a value greater than 200)”. Moreover, on Gal4-RORγ-LBD, the concentration giving a half-maximal response (EC50) was less than 500 nM and the “Gal4-RORγ Assay Max Response” value is listed as “*** (The symbol “***” indicates a value in the range of greater than 150 to 200)”.
In the case of `O=C(O)CC[C@H]1CN(S(=O)(=O)c2cccc(C(F)(F)F)c2)c2cc(-c3cc(F)ccc3Cl)ccc2O1` [Compound 2AI, (S)-3-(6-(2-chloro-5-fluoro-phenyl)-4-((3-(trifluoromethyl)-phenyl)sulfonyl)-3,4-dihydro-2H-benzo[b][1,4]oxazin-2-yl)propanoic acid], at RORγ-LBD, the half-maximal effective concentration (EC50) was less than 500 nM and the “TR-FRET Assay Max Response” value is “**** (The symbol “****” indicates a value greater than 200)”. In addition, on Gal4-RORγ-LBD, the “Gal4-RORγ Assay Max Response” value is on record as “** (The symbol “**” indicates a value in the range of greater than 90 to 150)”.
As for `CC(C)c1ccccc1-c1ccc2c(c1)N(S(=O)(=O)c1cccc(C(F)(F)F)c1)C[C@H](CCC(=O)O)O2` [Compound 2AJ, (S)-3-(6-(2-isopropylphenyl)-4-((3-(trifluoromethyl)phenyl)-sulfonyl)-3,4-dihydro-2H-benzo[b][1,4]oxazin-2-yl)propanoic acid], on RORγ-LBD, the EC50 was less than 500 nM and the “TR-FRET Assay Max Response” value is “**** (The symbol “****” indicates a value greater than 200)”. In addition, on Gal4-RORγ-LBD, the EC50 was less than 500 nM and the “Gal4-RORγ Assay Max Response” value was “** (The symbol “**” indicates a value in the range of greater than 90 to 150)”.
With `O=C(O)CC[C@H]1CN(S(=O)(=O)c2cccc(C(F)(F)F)c2)c2cc(-c3cncc(C(F)(F)F)c3)ccc2O1` [Compound 2AK, (S)-3-(4-((3-(trifluoromethyl)-phenyl)sulfonyl)-6-(5-(trifluoromethyl)pyridin-3-yl)-3,4-dihydro-2H-benzo[b][1,4]oxazin-2-yl)propanoic acid], at RORγ-LBD, the EC50 was less than 500 nM and the “TR-FRET Assay Max Response” value was “**** (The symbol “****” indicates a value greater than 200)”. On Gal4-RORγ-LBD, the EC50 is less than 500 nM and the “Gal4-RORγ Assay Max Response” value is given as “** (The symbol “**” indicates a value in the range of greater than 90 to 150)”.
For the compound `O=C(O)CC[C@H]1CN(S(=O)(=O)c2cccc(C(F)(F)F)c2)c2cc(-c3cccc(Cl)c3Cl)ccc2O1` [Compound 2AL, (S)-3-(6-(2,3-dichlorophenyl)-4-((3-(trifluoromethyl)phenyl)-sulfonyl)-3,4-dihydro-2H-benzo[b][1,4]oxazin-2-yl)propanoic acid], on RORγ-LBD, the EC50 was less than 500 nM and the “TR-FRET Assay Max Response” value is reported as “**** (The symbol “****” indicates a value greater than 200)”. On Gal4-RORγ-LBD, the EC50 was less than 500 nM and the “Gal4-RORγ Assay Max Response” value is “*** (The symbol “***” indicates a value in the range of greater than 150 to 200)”.
For the compound `O=C(O)CC[C@H]1CN(S(=O)(=O)c2cccc(C(F)(F)F)c2)c2cc(-c3cc(Cl)ccc3Cl)ccc2O1` [Compound 2AM, (S)-3-(6-(2,5-dichlorophenyl)-4-((3-(trifluoromethyl)phenyl)-sulfonyl)-3,4-dihydro-2H-benzo[b][1,4]oxazin-2-yl)propanoic acid], the concentration for a half-maximal effect (EC50) at RORγ-LBD and at Gal4-RORγ-LBD was less than 500 nM in each case.
Take `COc1ccc(-c2ccc3c(c2)N(S(=O)(=O)c2cccc(C(F)(F)F)c2)C[C@H](CCC(=O)O)O3)cc1Cl` [Compound 2AN, (S)-3-(6-(3-chloro-4-methoxyphenyl)-4-((3-(trifluoromethyl)phenyl)-sulfonyl)-3,4-dihydro-2H-benzo[b][1,4]oxazin-2-yl)propanoic acid]: on RORγ-LBD, the concentration giving a half-maximal response (EC50) is less than 500 nM and the “TR-FRET Assay Max Response” value is “**** (The symbol “****” indicates a value greater than 200)”. Further, at Gal4-RORγ-LBD, the EC50 was less than 500 nM and the “Gal4-RORγ Assay Max Response” value is “** (The symbol “**” indicates a value in the range of greater than 90 to 150)”.
Regarding `COc1cc(Cl)cc(-c2ccc3c(c2)N(S(=O)(=O)c2cccc(C(F)(F)F)c2)C[C@H](CCC(=O)O)O3)c1` [Compound 2AO, (S)-3-(6-(3-chloro-5-methoxyphenyl)-4-((3-(trifluoromethyl)phenyl)-sulfonyl)-3,4-dihydro-2H-benzo[b][1,4]oxazin-2-yl)propanoic acid], on RORγ-LBD, the EC50 was less than 500 nM and the “TR-FRET Assay Max Response” value is “**** (The symbol “****” indicates a value greater than 200)”. Besides, at Gal4-RORγ-LBD, the EC50 was less than 500 nM and the “Gal4-RORγ Assay Max Response” value is “*** (The symbol “***” indicates a value in the range of greater than 150 to 200)”.
On to `O=C(O)CC[C@H]1CN(S(=O)(=O)c2cccc(C(F)(F)F)c2)c2cc(-c3cccc(OC(F)(F)F)c3)ccc2O1` [Compound 2AP, (S)-3-(6-(3-(trifluoromethoxy)-phenyl)-4-((3-(trifluoromethyl)-phenyl)sulfonyl)-3,4-dihydro-2H-benzo[b][1,4]oxazin-2-yl)propanoic acid], for which, on RORγ-LBD, the half-maximal effective concentration (EC50) was less than 500 nM and the “TR-FRET Assay Max Response” value was “**** (The symbol “****” indicates a value greater than 200)”. Moreover, at Gal4-RORγ-LBD, the concentration giving a half-maximal response (EC50) was less than 500 nM and the “Gal4-RORγ Assay Max Response” value is on record as “** (The symbol “**” indicates a value in the range of greater than 90 to 150)”.
Turning to `Cn1cc(-c2ccc3c(c2)N(S(=O)(=O)c2cccc(C(F)(F)F)c2)C[C@H](CCC(=O)O)O3)cn1` [Compound 2AQ, (S)-3-(6-(1-methyl-1H-pyrazol-4-yl)-4-((3-(trifluoromethyl)-phenyl)sulfonyl)-3,4-dihydro-2H-benzo[b][1,4]oxazin-2-yl)propanoic acid], on RORγ-LBD, the EC50 is 500 to 5000 nM and the “TR-FRET Assay Max Response” value is given as “**** (The symbol “****” indicates a value greater than 200)”. For the same compound, at Gal4-RORγ-LBD, the EC50 was in the range of 500 to 5000 nM and the “Gal4-RORγ Assay Max Response” value is “* (The symbol “*” indicates a value in the range of 25 to 90)”.
For `Cn1nccc1-c1ccc2c(c1)N(S(=O)(=O)c1cccc(C(F)(F)F)c1)C[C@H](CCC(=O)O)O2` [Compound 2AR, (S)-3-(6-(1-methyl-1H-pyrazol-5-yl)-4-((3-(trifluoromethyl)-phenyl)sulfonyl)-3,4-dihydro-2H-benzo[b][1,4]oxazin-2-yl)propanoic acid], the EC50 on RORγ-LBD is 500 to 5000 nM; at Gal4-RORγ-LBD it was greater than 10000 nM. For the same compound, at RORγ-LBD, the “TR-FRET Assay Max Response” value is listed as “* (The symbol “*” indicates a value in the range of 25 to 90)”.
Take `CCOc1cccc(-c2ccc3c(c2)N(S(=O)(=O)c2cccc(C(F)(F)F)c2)C[C@H](CCC(=O)O)O3)c1` [Compound 2AS, (S)-3-(6-(3-ethoxyphenyl)-4-((3-(trifluoromethyl)phenyl)-sulfonyl)-3,4-dihydro-2H-benzo[b][1,4]-oxazin-2-yl)propanoic acid]: at RORγ-LBD, the EC50 is less than 500 nM and the “TR-FRET Assay Max Response” value is given as “**** (The symbol “****” indicates a value greater than 200)”. Moreover, on Gal4-RORγ-LBD, the EC50 was 500 to 5000 nM and the “Gal4-RORγ Assay Max Response” value was “** (The symbol “**” indicates a value in the range of greater than 90 to 150)”.
For the compound `N#Cc1cccc(-c2ccc3c(c2)N(S(=O)(=O)c2cccc(C(F)(F)F)c2)C[C@H](CCC(=O)O)O3)c1` [Compound 2AT, (S)-3-(6-(3-cyanophenyl)-4-((3-(trifluoromethyl)phenyl)-sulfonyl)-3,4-dihydro-2H-benzo[b][1,4]oxazin-2-yl)propanoic acid], at RORγ-LBD, the EC50 was less than 500 nM and the “TR-FRET Assay Max Response” value was “**** (The symbol “****” indicates a value greater than 200)”. In addition, at Gal4-RORγ-LBD, the EC50 is 500 to 5000 nM and the “Gal4-RORγ Assay Max Response” value was “** (The symbol “**” indicates a value in the range of greater than 90 to 150)”.
With `O=C(O)CC[C@H]1CN(S(=O)(=O)c2cccc(C(F)(F)F)c2)c2cc(-c3cccc(O)c3)ccc2O1` [Compound 2AU, (S)-3-(6-(3-hydroxyphenyl)-4-((3-(trifluoromethyl)phenyl)-sulfonyl)-3,4-dihydro-2H-benzo[b][1,4]oxazin-2-yl)propanoic acid], at RORγ-LBD, the half-maximal effective concentration (EC50) was less than 500 nM and the “TR-FRET Assay Max Response” value was “*** (The symbol “***” indicates a value in the range of greater than 150 to 200)”. Also, at Gal4-RORγ-LBD, the EC50 fell in the range of 500 to 5000 nM and the “Gal4-RORγ Assay Max Response” value was “* (The symbol “*” indicates a value in the range of 25 to 90)”.
The corresponding values for `CC(C)Oc1cccc(-c2ccc3c(c2)N(S(=O)(=O)c2cccc(C(F)(F)F)c2)C[C@H](CCC(=O)O)O3)c1` [Compound 2AV, (S)-3-(6-(3-isopropoxyphenyl)-4-((3-(trifluoromethyl)phenyl)-sulfonyl)-3,4-dihydro-2H-benzo[b][1,4]oxazin-2-yl)propanoic acid] are less than 500 nM, “**** (The symbol “****” indicates a value greater than 200)”, 500 to 5000 nM and “* (The symbol “*” indicates a value in the range of 25 to 90)”.
